Measured values reported in ChEMBL document CHEMBL3627714, “Development of a novel class of potent and selective FIXa inhibitors” (Bioorg Med Chem Lett, 2015).
Values belong to the compound of their own block, whether it stands above or below them.

Assays:
[1] = biological target: Coagulation factor IX (Homo sapiens, UniProt P00740); test: Inhibition of human coagulation factor 9a using fluorescent peptide CH3SO2-D-CHG-Gly-Arg-AFC-AcoH as substrate
[2] = biological target: Coagulation factor X (Homo sapiens, UniProt P00742); test: Inhibition of human coagulation factor 10a using fluorescent peptide nAcetyl-KPR-AFC as substrate
[3] = biological target: Cytochrome P450 2C9 (Homo sapiens, UniProt P11712); test: Inhibition of CYP2C9 (unknown origin); format: ADME
[4] = biological target: Cytochrome P450 2D6 (Homo sapiens, UniProt P10635); test: Inhibition of CYP2D6 (unknown origin); format: ADME
[5] = Oral bioavailability in rat at 2 mg/kg; format: ADME, organism-based; conditions: in vivo
[6] = Half life in rat at 2 mg/kg, po and 0.5 mg/kg, iv; format: ADME, organism-based; conditions: in vivo
[7] = tested on: Rattus norvegicus; test: Dose normalized AUC in rat at 2 mg/kg, po; format: ADME, organism-based; conditions: in vivo
[8] = biological target: T1, Cytochrome P450 2C8 (Homo sapiens, UniProt P10632); test: Inhibition of CYP2C8 (unknown origin); format: ADME
T1 sequence (P10632 whole entry): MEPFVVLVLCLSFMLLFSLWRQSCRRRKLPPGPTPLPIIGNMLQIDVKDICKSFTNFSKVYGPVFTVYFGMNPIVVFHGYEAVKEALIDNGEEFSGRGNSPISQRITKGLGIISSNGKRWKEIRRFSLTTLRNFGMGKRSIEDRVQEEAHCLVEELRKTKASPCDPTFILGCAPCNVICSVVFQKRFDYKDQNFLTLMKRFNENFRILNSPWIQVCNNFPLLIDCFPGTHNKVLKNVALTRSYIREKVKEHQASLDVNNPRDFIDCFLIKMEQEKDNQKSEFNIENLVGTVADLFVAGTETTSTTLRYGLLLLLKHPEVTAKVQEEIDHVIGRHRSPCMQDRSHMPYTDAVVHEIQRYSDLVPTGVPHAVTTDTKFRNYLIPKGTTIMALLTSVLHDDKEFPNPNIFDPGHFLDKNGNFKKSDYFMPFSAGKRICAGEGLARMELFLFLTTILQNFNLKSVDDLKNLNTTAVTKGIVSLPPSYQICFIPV

[9] = biological target: Voltage-gated inwardly rectifying potassium channel KCNH2 (Homo sapiens, UniProt Q12809)
[10] = biological target: Cytochrome P450 3A4 (Homo sapiens, UniProt P08684); test: Inhibition of CYP3A4 (unknown origin); format: ADME
[11] = Clearance in rat at 2 mg/kg, po and 0.5 mg/kg, iv; format: ADME, organism-based; conditions: in vivo
[12] = tested on: Plasma; test: Anticoagulant activity in 3 pM tissue factor stimulated human CTI-citrated plasma assessed as inhibition of thrombin generation incubated for 5 mins by calibrated automated thrombogram analysis; format: functional, cell-free
[13] = tested on: Plasma; test: Anticoagulant activity in 10 pM tissue factor stimulated human CTI-citrated plasma assessed as inhibition of thrombin generation incubated for 5 mins by calibrated automated thrombogram analysis; format: functional, cell-free
[14] = tested on: Plasma; test: Anticoagulant activity in 3 pM recombinant coagulation factor 11a stimulated human CTI-citrated plasma assessed as inhibition of thrombin generation incubated for 5 mins by calibrated automated thrombogram analysis; format: functional, cell-free
[15] = tested on: Plasma; test: Anticoagulant activity in 0.3 pM tissue factor stimulated human CTI-citrated plasma assessed as inhibition of thrombin generation incubated for 5 mins by calibrated automated thrombogram analysis; format: functional, cell-free
[16] = tested on: Plasma; test: Anticoagulant activity in 0.1 pM recombinant coagulation factor 11a stimulated human CTI-citrated plasma assessed as inhibition of thrombin generation incubated for 5 mins by calibrated automated thrombogram analysis; format: functional, cell-free
[17] = tested on: Plasma; test: Anticoagulant activity in 0.3 pM recombinant coagulation factor 11a stimulated human CTI-citrated plasma assessed as inhibition of thrombin generation incubated for 5 mins by calibrated automated thrombogram analysis; format: functional, cell-free
[18] = tested on: Plasma; test: Anticoagulant activity in 1 pM tissue factor stimulated human CTI-citrated plasma assessed as inhibition of thrombin generation incubated for 5 mins by calibrated automated thrombogram analysis; format: functional, cell-free
[19] = tested on: Plasma; test: Anticoagulant activity in 1 pM recombinant coagulation factor 11a stimulated human CTI-citrated plasma assessed as inhibition of thrombin generation incubated for 5 mins by calibrated automated thrombogram analysis; format: functional, cell-free
[20] = tested on: Plasma; test: Anticoagulant activity in 20 pM tissue factor stimulated human CTI-citrated plasma assessed as inhibition of thrombin generation incubated for 5 mins by calibrated automated thrombogram analysis; format: functional, cell-free
[21] = tested on: Plasma; test: Anticoagulant activity in 10 pM recombinant coagulation factor 11a stimulated human CTI-citrated plasma assessed as inhibition of thrombin generation incubated for 5 mins by calibrated automated thrombogram analysis; format: functional, cell-free

Chain of Coagulation factor X (P00742 41-179 limits assumed): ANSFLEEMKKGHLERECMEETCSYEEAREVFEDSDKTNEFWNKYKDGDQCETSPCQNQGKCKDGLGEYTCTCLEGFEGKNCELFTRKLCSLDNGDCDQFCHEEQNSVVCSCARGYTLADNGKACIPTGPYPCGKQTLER
Chain of Coagulation factor X (P00742 235-488 limits assumed): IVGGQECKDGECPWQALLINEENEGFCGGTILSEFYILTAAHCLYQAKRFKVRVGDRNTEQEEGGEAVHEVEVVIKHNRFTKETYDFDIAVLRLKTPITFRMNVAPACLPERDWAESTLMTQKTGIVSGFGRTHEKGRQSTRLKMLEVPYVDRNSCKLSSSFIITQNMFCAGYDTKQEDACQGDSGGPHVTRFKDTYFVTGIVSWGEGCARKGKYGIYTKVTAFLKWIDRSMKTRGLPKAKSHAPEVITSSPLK
Chain of Cytochrome P450 3A4 (P08684 whole entry): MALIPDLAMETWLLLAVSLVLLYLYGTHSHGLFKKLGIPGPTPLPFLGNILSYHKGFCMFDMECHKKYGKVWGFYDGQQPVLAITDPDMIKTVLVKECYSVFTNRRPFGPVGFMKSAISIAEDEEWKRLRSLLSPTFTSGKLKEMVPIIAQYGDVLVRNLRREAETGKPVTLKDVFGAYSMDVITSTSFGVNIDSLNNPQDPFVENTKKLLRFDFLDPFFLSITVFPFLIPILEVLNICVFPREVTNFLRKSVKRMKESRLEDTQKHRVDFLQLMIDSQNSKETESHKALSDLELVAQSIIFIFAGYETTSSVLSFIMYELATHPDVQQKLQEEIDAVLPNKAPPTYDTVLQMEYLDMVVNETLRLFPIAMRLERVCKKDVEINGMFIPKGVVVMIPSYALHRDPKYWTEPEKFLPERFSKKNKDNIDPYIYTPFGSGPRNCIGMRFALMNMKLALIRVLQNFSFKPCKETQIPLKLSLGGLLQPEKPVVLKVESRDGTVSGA
Chain of Voltage-gated inwardly rectifying potassium channel KCNH2 (Q12809 whole entry): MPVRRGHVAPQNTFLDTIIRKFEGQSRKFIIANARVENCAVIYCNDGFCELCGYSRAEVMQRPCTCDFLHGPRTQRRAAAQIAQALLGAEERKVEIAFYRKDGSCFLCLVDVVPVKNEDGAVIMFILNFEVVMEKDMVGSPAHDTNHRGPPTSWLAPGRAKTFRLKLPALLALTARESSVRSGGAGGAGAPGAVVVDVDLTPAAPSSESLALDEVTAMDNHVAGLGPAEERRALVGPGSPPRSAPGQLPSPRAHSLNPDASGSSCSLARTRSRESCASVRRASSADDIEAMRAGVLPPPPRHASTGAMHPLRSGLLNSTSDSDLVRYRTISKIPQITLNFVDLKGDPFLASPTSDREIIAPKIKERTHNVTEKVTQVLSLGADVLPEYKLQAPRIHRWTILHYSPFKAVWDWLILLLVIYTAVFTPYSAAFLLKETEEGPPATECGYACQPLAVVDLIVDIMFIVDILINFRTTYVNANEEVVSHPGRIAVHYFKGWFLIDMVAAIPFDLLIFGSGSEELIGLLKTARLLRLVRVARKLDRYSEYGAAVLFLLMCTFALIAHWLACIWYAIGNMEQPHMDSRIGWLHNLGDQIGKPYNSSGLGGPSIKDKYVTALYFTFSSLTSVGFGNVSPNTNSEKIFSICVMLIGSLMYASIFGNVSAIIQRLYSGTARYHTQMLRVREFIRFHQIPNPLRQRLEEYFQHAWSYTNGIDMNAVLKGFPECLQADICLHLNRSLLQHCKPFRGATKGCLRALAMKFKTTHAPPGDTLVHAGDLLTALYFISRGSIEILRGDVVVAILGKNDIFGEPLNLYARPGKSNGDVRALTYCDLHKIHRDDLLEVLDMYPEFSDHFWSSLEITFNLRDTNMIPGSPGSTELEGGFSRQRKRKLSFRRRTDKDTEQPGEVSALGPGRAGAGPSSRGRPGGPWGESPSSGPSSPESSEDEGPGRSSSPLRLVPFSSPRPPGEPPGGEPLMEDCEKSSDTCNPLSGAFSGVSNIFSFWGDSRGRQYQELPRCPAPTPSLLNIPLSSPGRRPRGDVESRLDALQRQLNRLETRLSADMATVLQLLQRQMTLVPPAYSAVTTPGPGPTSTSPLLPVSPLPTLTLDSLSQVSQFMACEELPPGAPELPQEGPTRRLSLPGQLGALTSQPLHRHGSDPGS
Chain of Coagulation factor IX (P00740 47-191 limits assumed): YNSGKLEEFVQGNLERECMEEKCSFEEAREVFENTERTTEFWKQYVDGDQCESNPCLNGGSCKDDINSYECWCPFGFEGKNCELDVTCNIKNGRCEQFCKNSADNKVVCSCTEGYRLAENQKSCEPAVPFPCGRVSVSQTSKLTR
Chain of Coagulation factor IX (P00740 227-461 limits assumed): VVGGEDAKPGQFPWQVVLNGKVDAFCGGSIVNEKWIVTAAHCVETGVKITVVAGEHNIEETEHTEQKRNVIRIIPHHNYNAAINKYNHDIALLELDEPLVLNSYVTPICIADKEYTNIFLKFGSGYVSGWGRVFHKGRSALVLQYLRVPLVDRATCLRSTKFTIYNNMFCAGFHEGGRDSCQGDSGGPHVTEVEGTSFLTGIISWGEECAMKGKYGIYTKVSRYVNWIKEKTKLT
Chain of Cytochrome P450 2D6 (P10635 whole entry): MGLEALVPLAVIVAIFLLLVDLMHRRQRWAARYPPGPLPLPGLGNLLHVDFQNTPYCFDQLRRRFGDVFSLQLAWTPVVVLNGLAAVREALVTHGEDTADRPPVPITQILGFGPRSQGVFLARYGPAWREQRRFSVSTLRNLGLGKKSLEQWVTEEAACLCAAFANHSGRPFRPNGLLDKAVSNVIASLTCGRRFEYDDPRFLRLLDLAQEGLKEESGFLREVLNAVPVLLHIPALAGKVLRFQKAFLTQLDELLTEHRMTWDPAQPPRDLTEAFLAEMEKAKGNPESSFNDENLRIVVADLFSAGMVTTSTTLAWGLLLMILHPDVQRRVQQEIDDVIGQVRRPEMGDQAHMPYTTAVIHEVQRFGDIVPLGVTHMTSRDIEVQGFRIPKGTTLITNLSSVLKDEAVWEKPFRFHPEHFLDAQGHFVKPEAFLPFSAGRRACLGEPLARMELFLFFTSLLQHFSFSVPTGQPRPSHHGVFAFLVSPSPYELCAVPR
Chain of Cytochrome P450 2C9 (P11712 whole entry): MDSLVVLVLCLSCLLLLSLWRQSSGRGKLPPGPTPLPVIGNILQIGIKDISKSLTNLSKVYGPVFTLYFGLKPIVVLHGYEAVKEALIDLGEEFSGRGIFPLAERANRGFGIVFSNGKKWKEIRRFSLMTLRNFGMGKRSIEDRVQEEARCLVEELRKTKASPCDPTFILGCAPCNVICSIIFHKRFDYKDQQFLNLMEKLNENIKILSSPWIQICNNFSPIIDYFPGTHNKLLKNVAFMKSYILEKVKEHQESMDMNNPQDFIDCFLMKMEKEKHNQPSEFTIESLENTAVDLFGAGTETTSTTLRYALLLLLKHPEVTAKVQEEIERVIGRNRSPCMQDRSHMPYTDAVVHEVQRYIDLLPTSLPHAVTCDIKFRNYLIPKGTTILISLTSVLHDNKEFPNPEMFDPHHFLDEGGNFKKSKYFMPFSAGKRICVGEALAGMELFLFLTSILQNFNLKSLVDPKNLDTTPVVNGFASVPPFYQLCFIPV

Structure (SMILES): COc1cc(-n2cnnc2)cc(Cl)c1C(=O)NC[C@@H](c1ccccc1)c1nc2cc(C)c(C)cc2[nH]1
Ki [1]: 0.0148 µM
Ki [2]: 0.245 µM

Structure (SMILES): Cc1cc2nc([C@@H](CNC(=O)c3ccc(-n4cnnc4)cc3Cl)c3ccccc3F)[nH]c2cc1C
Ki [1]: 0.0193 µM
Ki [2]: 0.412 µM

Structure (SMILES): Cc1cc2nc([C@@H](CNC(=O)c3ccc(-n4cnnc4)cc3Cl)c3cccc(F)c3)[nH]c2cc1C
Ki [1]: 0.0057 µM
Ki [2]: 1.01 µM

Structure (SMILES): Cc1cc2nc([C@@H](CNC(=O)c3ccc(-n4cnnc4)cc3Cl)c3ccc(F)cc3)[nH]c2cc1C
Ki [1]: 0.0084 µM
Ki [2]: 1.51 µM

Structure (SMILES): Cc1ncn(-c2cc(Cl)c(C(=O)NC[C@@H](c3cccc(F)c3)c3nc4cc(C)c(Cl)cc4[nH]3)c(Cl)c2)n1
Ki [1]: 0.0136 µM
Ki [2]: 15.2 µM

Structure (SMILES): COc1cc2nc([C@@H](CNC(=O)c3c(Cl)cc(-n4cnc(C)n4)cc3Cl)c3cccc(F)c3)[nH]c2cc1Cl
IC50 [3]: 9.09 µM
Ki [1]: 0.0029 µM
IC50 [4]: > 50 µM
Ki [2]: 1.93 µM
bioavailability [5]: 7.89%
half-life [6]: 1.03 h
AUC/dose [7]: 0.056 µM·h/mg/kg
IC50 [8]: 0.456 µM
IC50 [9]: 10.9 µM
IC50 [10]: 33.3 µM
clearance [11]: 42.1 mL/min/kg

Structure (SMILES): Cc1ncn(-c2cc(Cl)c(C(=O)NC[C@@H](c3cccc(F)c3)c3nc4c(C)cc(Cl)cc4[nH]3)c(Cl)c2)n1
IC50 [3]: 22.4 µM
Ki [1]: 0.0062 µM
IC50 [4]: > 50 µM
Ki [2]: > 28.9 µM
bioavailability [5]: 57.3%
half-life [6]: 1.66 h
AUC/dose [7]: 4.36 µM·h/mg/kg
IC50 [8]: 4.04 µM
IC50 [9]: 3.05 µM
IC50 [10]: > 50 µM
clearance [11]: 3.84 mL/min/kg

Structure (SMILES): Cc1ncn(-c2cc(Cl)c(C(=O)NC[C@@H](c3cccc(F)c3)c3ccc4[nH]c(C)nc4c3)c(Cl)c2)n1
IC50 [3]: 24.9 µM
Ki [1]: 0.0091 µM
IC50 [4]: 31.6 µM
IC50 [12]: 0.953 µM
IC50 [13]: 1.85 µM
Ki [2]: 2.8 µM
IC50 [14]: 7.16 µM
bioavailability [5]: 11.1%
IC50 [15]: 1.64 µM
half-life [6]: 1.24 h
IC50 [16]: 0.303 µM
IC50 [17]: 1.6 µM
AUC/dose [7]: 0.097 µM·h/mg/kg
IC50 [18]: 1.16 µM
IC50 [8]: 1.57 µM
IC50 [19]: 2.52 µM
IC50 [20]: 1.9 µM
IC50 [9]: 19.9 µM
IC50 [10]: > 50 µM
clearance [11]: 36.5 mL/min/kg
IC50 [21]: 22.4 µM

Structure (SMILES): Cc1ncn(-c2cc(Cl)c(C(=O)NC[C@@H](c3cccc(F)c3)c3nc4c(F)ccc(C)c4c(=O)[nH]3)c(Cl)c2)n1
IC50 [3]: 42.8 µM
Ki [1]: 0.001 µM
IC50 [4]: > 50 µM
Ki [2]: > 28.9 µM
bioavailability [5]: 14.1%
half-life [6]: 1.12 h
AUC/dose [7]: 0.284 µM·h/mg/kg
IC50 [8]: 24.4 µM
IC50 [9]: > 60 µM
IC50 [10]: > 50 µM
clearance [11]: 15.5 mL/min/kg

Structure (SMILES): COc1ccc(-n2nc(C(N)=O)c3c2C(=O)N(c2ccc(N4CCCCC4=O)cc2)CC3)cc1 [APIXABAN]
IC50 [12]: 0.0484 µM
IC50 [13]: 0.159 µM
IC50 [14]: 0.747 µM
IC50 [15]: 0.0476 µM
IC50 [16]: 0.0513 µM
IC50 [17]: 0.116 µM
IC50 [18]: 0.0337 µM
IC50 [19]: 0.191 µM
IC50 [20]: 0.299 µM
IC50 [21]: 2.41 µM

More lines, in order of falling Ki [1], values ahead:

Ki [1]: 0.0218 µM
Ki [2]: 0.34 µM
Structure (SMILES): Cc1cc2nc([C@@H](CNC(=O)c3c(Cl)cc(-n4cnnc4)cc3C(F)(F)F)c3ccccc3)[nH]c2cc1C

Ki [1]: 0.0208 µM
Ki [2]: 2.47 µM
Structure (SMILES): Cc1ncn(-c2cc(Cl)c(C(=O)NC[C@@H](c3ccccc3)c3nc4cc(C)c(C)cc4[nH]3)c(Cl)c2)n1

Ki [1]: 0.0154 µM
Ki [2]: 1.6 µM
Structure (SMILES): Cc1cc2nc([C@@H](CNC(=O)c3ccc(-n4cnnc4)cc3Cl)c3cccnc3)[nH]c2cc1C

Ki [1]: 0.0152 µM
Ki [2]: 0.544 µM
Structure (SMILES): Cc1cc2nc([C@@H](CNC(=O)c3c(F)cc(-n4cnnc4)cc3Cl)c3ccccc3)[nH]c2cc1C

Ki [1]: 0.0104 µM
Ki [2]: > 28.9 µM
Structure (SMILES): Cc1ncn(-c2cc(Cl)c(C(=O)NC[C@@H](c3cccc(F)c3)c3ccc4c(C)ccc(F)c4n3)c(Cl)c2)n1

IC50 [3]: 19.8 µM
Ki [1]: 0.0098 µM
IC50 [4]: 30.4 µM
Ki [2]: 20.7 µM
bioavailability [5]: 48.2%
half-life [6]: 0.8 h
AUC/dose [7]: 1.74 µM·h/mg/kg
IC50 [8]: 5.28 µM
IC50 [10]: > 50 µM
clearance [11]: 8.77 mL/min/kg
Structure (SMILES): Cc1ncn(-c2cc(Cl)c(C(=O)NC[C@@H](c3cccc(F)c3)c3nc4ccc(Cl)cc4[nH]3)c(Cl)c2)n1

Ki [1]: 0.008 µM
Ki [2]: 0.195 µM
Structure (SMILES): Cc1cc2nc([C@@H](CNC(=O)c3c(C)cc(-n4cnnc4)cc3Cl)c3ccccc3)[nH]c2cc1C

Ki [1]: 0.0037 µM
Ki [2]: > 28.9 µM
Structure (SMILES): Cc1ncn(-c2cc(Cl)c(C(=O)NC[C@@H](c3cccc(F)c3)c3cnc4[nH]c(C)cc4c3)c(Cl)c2)n1

Ki [1]: 0.0036 µM
Ki [2]: 0.105 µM
Structure (SMILES): Cc1cc2nc([C@@H](CNC(=O)c3c(Cl)cc(-n4cnnc4)cc3Cl)c3ccccc3)[nH]c2cc1C

Ki [1]: 0.0033 µM
Ki [2]: > 28.9 µM
Structure (SMILES): Cc1ncn(-c2cc(Cl)c(C(=O)NC[C@@H](c3cccc(F)c3)c3cc(=O)c4c(C)ccc(F)c4[nH]3)c(Cl)c2)n1
